Measured values from patent US11964951B2, “Process of making derivatives of substituted morpholines” (Supernus Pharmaceuticals, Inc., priority 2022, dated 2024).

Key:
[1] = relative to the (R)-(+)-isomer; J. Med. Chem. 1976, 19(8), 1074; cited from earlier work
[2] = chemical stability on standing / by HPLC during work-up; assay type: physicochemical; details: kept at room temperature overnight
Method: The process was repeated. The mother liquor materials were combined. A 15-g portion of the mother liquor material (a syrupy liquid) was subjected to a water-acid-base extraction by dissolving the mother liquor in 50 mL of ethyl acetate and washing with water then with 1N HCl (2×). The ethyl acetate layer contained 2-((2-ethoxyphenoxy)methyl)morpholine, unreacted BOC compound 5, and a trace of the desired compound. The HCl solution was mainly the desired amine 6 HCl salt plus some 2-((2-ethoxyphenoxy)methyl)morpholine and a minor impurity. This solution was made alkaline with sodium bicarbonate, extracted with dichloromethane (3×) washed with brine, and dried over magnesium sulfate. […] The material was kept at room temperature overnight whereupon it decomposed.
The ethyl acetate solution of the free base was treated with a solution of 150 mg of maleic acid in 2 mL of isopropanol. […] The material was dissolved in dichloromethane, washed with water, and evaporated to give 374 mg of the maleate as an oil.

Row | SMILES | pharmacological activity as compared to the (R)-(+)-isomer [1] | stability of the isolated material [2]
1 | CCOc1ccccc1OC[C@@H]1CNCCO1 [(S)-enantiomer, (S)-2-((2-ethoxyphenoxy)methyl)morpholine] | five times | 
2 | CCOc1ccccc1OC[C@@H]1CN(C(=O)OC(C)OC(=O)[C@@H](N)C(C)C)CCO1.Cl (mixture of isomers) [Compound 6, 1-[(S)-2-Amino-3-methylbutyroxy]ethyl (S)-2-[(o-ethoxyphenoxy)methyl]-4-morpholinecarboxylate, hydrochloride] |  | decomposed
